In PubChem BioAssay AID248 (DTP/NCI, 2004):
“And” between values parts separate entries of the source, which are not always exact repeats. Equal entries are not always repeated. Inconclusive results and toxic doses are left out.

System: L1210 leukemia ip in BDF1 mice, survival T/C
Experiment: NCI In Vivo Anticancer Drug Screen. Data for tumor model L1210 Leukemia (intraperitoneal) in B6D2F1 (BDF1) mice
Settings: endpoint: mean survival time, higher = longer survival
Procedure, shortened: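 Survival endpoint. Drug-treated group vs vehicle group, expressed as T divided by C. Tumor passaged by transplantation.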

[1] = dose: 100.0 mg/kg/injection, schedule: Q04DX003 (ip), vehicle: Klucel (hydroxypropylcellulose) (HPC)
[2] = dose: 50.0 mg/kg/injection, schedule: Q01DX009 (ip), vehicle: Klucel (hydroxypropylcellulose) (HPC)
[3] = dose: 100.0 mg/kg/injection, schedule: Q01DX009 (ip), vehicle: Klucel (hydroxypropylcellulose) (HPC)
[4] = dose: 200.0 mg/kg/injection, schedule: Q01DX009 (ip), vehicle: Klucel (hydroxypropylcellulose) (HPC)
[5] = dose: 100.0 mg/kg/injection, schedule: Q04DX003 (ip), vehicle: saline with Tween-80
[6] = dose: 200.0 mg/kg/injection, schedule: Q04DX003 (ip), vehicle: saline with Tween-80
[7] = dose: 400.0 mg/kg/injection, schedule: Q04DX003 (ip), vehicle: saline with Tween-80
[8] = dose: 50.0 mg/kg/injection, schedule: Q04DX003 (ip), vehicle: saline
[9] = dose: 100.0 mg/kg/injection, schedule: Q01DX001 (ip), vehicle: saline
[10] = dose: 100.0 mg/kg/injection, schedule: Q04DX003 (ip), vehicle: saline
[11] = dose: 200.0 mg/kg/injection, schedule: Q04DX003 (ip), vehicle: saline

## COC(=O)c1[nH]c(=O)[nH]c(=O)c1F
dose: 1.0 mg/kg/injection, schedule: Q01DX009 (ip), vehicle: saline with Tween-80
  T/C: 103 % of control
dose: 1.0 mg/kg/injection, schedule: Q01DX Z (ip), vehicle: methylcellulose (MC)
  T/C: 115 % of control
dose: 2.0 mg/kg/injection, schedule: Q01DX009 (ip), vehicle: saline with Tween-80
  T/C: 110 % of control
dose: 2.0 mg/kg/injection, schedule: Q01DX Z (ip), vehicle: carboxymethylcellulose (CMC)
  T/C: 118 % of control
dose: 3.0 mg/kg/injection, schedule: Q01DX Z (ip), vehicle: carboxymethylcellulose (CMC)
  T/C: 124 % of control
dose: 3.0 mg/kg/injection, schedule: Q01DX Z (ip), vehicle: methylcellulose (MC)
  T/C: 151 % of control
dose: 4.0 mg/kg/injection, schedule: Q01DX009 (ip), vehicle: saline with Tween-80
  T/C: 123 % of control
dose: 5.0 mg/kg/injection, schedule: Q01DX Z (ip), vehicle: carboxymethylcellulose (CMC)
  T/C: 185 % of control
dose: 6.0 mg/kg/injection, schedule: Q01DX Z (ip), vehicle: methylcellulose (MC)
  T/C: 172 % of control
dose: 8.0 mg/kg/injection, schedule: Q01DX009 (ip), vehicle: saline with Tween-80
  T/C: 167 % of control
dose: 8.0 mg/kg/injection, schedule: Q01DX Z (ip), vehicle: carboxymethylcellulose (CMC)
  T/C: 150 % of control
dose: 17.0 mg/kg/injection, schedule: Q01DX Z (ip), vehicle: carboxymethylcellulose (CMC)
  T/C: 97 % of control
dose: 24.0 mg/kg/injection, schedule: Q01DX Z (ip), vehicle: methylcellulose (MC)
  T/C: 114 % of control
dose: 25.0 mg/kg/injection, schedule: Q01DX Z (ip), vehicle: carboxymethylcellulose (CMC)
  T/C: 120 % of control
dose: 32.0 mg/kg/injection, schedule: Q01DX009 (ip), vehicle: saline with Tween-80
  T/C: 92 % of control
dose: 32.0 mg/kg/injection, schedule: Q04DX003 (ip), vehicle: saline with Tween-80
  T/C: 157 % of control
dose: 38.0 mg/kg/injection, schedule: Q01DX Z (ip), vehicle: carboxymethylcellulose (CMC)
  T/C: 101 % of control
dose: 48.0 mg/kg/injection, schedule: Q01DX Z (ip), vehicle: methylcellulose (MC)
  T/C: 114 % of control
dose: 64.0 mg/kg/injection, schedule: Q04DX003 (ip), vehicle: saline with Tween-80
  T/C: 215 % of control
dose: 90.0 mg/kg/injection, schedule: Q01DX Z (ip), vehicle: methylcellulose (MC)
  T/C: 91 % of control

## NC(=O)C(Br)c1ccccc1 (stereo not given)
[1]
  T/C: 101 % of control
dose: 200.0 mg/kg/injection, schedule: Q04DX003 (ip), vehicle: Klucel (hydroxypropylcellulose) (HPC)
  T/C: 98 % of control

## O=[N+]([O-])C12CCC(c3ccccc31)c1ccccc12
dose: 100.0 mg/kg/injection, schedule: Q04DX002 (ip), vehicle: gum acacia
  T/C: 103 % of control
dose: 200.0 mg/kg/injection, schedule: Q04DX002 (ip), vehicle: gum acacia
  T/C: 101 % of control
dose: 400.0 mg/kg/injection, schedule: Q04DX002 (ip), vehicle: gum acacia
  T/C: 92 % of control

## COc1cccc(/C=C/c2nc3ccccc3nc2/C=C/c2cccc(OC)c2OC)c1OC
[2]
  T/C: 95 % of control
[3]
  T/C: 92 % of control
[4]
  T/C: 101 % of control

## O=C(CBr)c1cc(-c2cccc(I)c2)nc2c(Cl)cc(Cl)cc12
[5]
  T/C: 101 % of control
[6]
  T/C: 93 % of control
[7]
  T/C: 93 % of control

## CCOC(=O)c1c(N)[nH]c(SSc2[nH]c(N)c(C(=O)OCC)c2C(=O)OCC)c1C(=O)OCC
[5]
  T/C: 99 % of control
[6]
  T/C: 96 % of control
[7]
  T/C: 89 % of control

## CCCCCCCC1CCC(=O)O1 (stereo not given)
[8]
  T/C: 103 % of control
[9]
  T/C: 95 % of control
[10]
  T/C: 105 % of control
dose: 200.0 mg/kg/injection, schedule: Q01DX001 (ip), vehicle: saline
  T/C: 98 % of control
[11]
  T/C: 97 % of control
dose: 400.0 mg/kg/injection, schedule: Q01DX001 (ip), vehicle: saline
  T/C: 100 % of control

## CN(NCc1ccccc1)C(=N)N
dose: 25.0 mg/kg/injection, schedule: Q04DX003 (ip), vehicle: saline
  T/C: 106 % of control
[8]
  T/C: 109 % of control
[9]
  T/C: 107 % of control
[10]
  T/C: 109 % of control

## CCCCOc1ccccc1NC(=O)CCl
[10]
  T/C: 100 % of control
[11]
  T/C: 100 % of control
dose: 400.0 mg/kg/injection, schedule: Q04DX003 (ip), vehicle: saline
  T/C: 93 % of control

## CC(O)(c1cccc(Cl)c1)C(c1ccccc1)c1ccccn1 (stereo not given)
[5]
  T/C: 101 % of control and 100 % of control
[6]
  T/C: 92 % of control and 106 % of control
[7]
  T/C: 101 % of control and 106 % of control

## Cc1ccc(S(=O)(=O)N(CCCc2c(C)nc(N)[nH]c2=O)c2ccccc2)cc1
[2]
  T/C: 102 % of control
[3]
  T/C: 91 % of control
[4]
  T/C: 95 % of control

## CC(=O)c1cccc(NC(=O)Nc2cccc(O)c2)c1
[3]
  T/C: 101 % of control
[4]
  T/C: 97 % of control
dose: 400.0 mg/kg/injection, schedule: Q01DX009 (ip), vehicle: Klucel (hydroxypropylcellulose) (HPC)
  T/C: 101 % of control

## NC(N)=NCCCC(N)C(=O)NCCCCCCNCCCCCCNC(=O)C(N)CCCN=C(N)N (stereo not given)
dose: 1.25 mg/kg/injection, schedule: Q01DX Z (ip), vehicle: saline
  T/C: 96 % of control
dose: 2.5 mg/kg/injection, schedule: Q01DX Z (ip), vehicle: saline
  T/C: 94 % of control
dose: 5.0 mg/kg/injection, schedule: Q01DX Z (ip), vehicle: saline
  T/C: 98 % of control
dose: 10.0 mg/kg/injection, schedule: Q01DX Z (ip), vehicle: saline
  T/C: 96 % of control

## Cc1ccc(S(=O)(=O)N/N=C\C(O)C(O)C(O)CO)cc1 (stereo not given)
dose: 100.0 mg/kg/injection, schedule: Q04DX002 (ip), vehicle: saline with Tween-80
  T/C: 97 % of control
dose: 200.0 mg/kg/injection, schedule: Q04DX002 (ip), vehicle: saline with Tween-80
  T/C: 94 % of control
dose: 400.0 mg/kg/injection, schedule: Q04DX002 (ip), vehicle: saline with Tween-80
  T/C: 97 % of control

## CCCCS(=O)(=O)N1CCCCC1
dose: 100.0 mg/kg/injection, schedule: Q01DX009 (ip), vehicle: saline
  T/C: 107 % of control
dose: 200.0 mg/kg/injection, schedule: Q01DX009 (ip), vehicle: saline
  T/C: 95 % of control
dose: 400.0 mg/kg/injection, schedule: Q01DX009 (ip), vehicle: saline
  T/C: 106 % of control

## COc1ccccc1N1CCN(CCc2c[nH]c3cc4c(cc23)OCO4)CC1
dose: 3.12 mg/kg/injection, schedule: Q01DX009 (ip), vehicle: Klucel (hydroxypropylcellulose) (HPC)
  T/C: 103 % of control
dose: 6.25 mg/kg/injection, schedule: Q01DX009 (ip), vehicle: Klucel (hydroxypropylcellulose) (HPC)
  T/C: 97 % of control and 110 % of control
dose: 12.5 mg/kg/injection, schedule: Q01DX009 (ip), vehicle: Klucel (hydroxypropylcellulose) (HPC)
  T/C: 106 % of control and 111 % of control and 120 % of control
dose: 12.5 mg/kg/injection, schedule: Q04DX003 (ip), vehicle: Klucel (hydroxypropylcellulose) (HPC)
  T/C: 94 % of control
dose: 25.0 mg/kg/injection, schedule: Q01DX009 (ip), vehicle: Klucel (hydroxypropylcellulose) (HPC)
  T/C: 89 % of control
dose: 25.0 mg/kg/injection, schedule: Q01DX015 (ip), vehicle: carboxymethylcellulose (CMC)
  T/C: 102 % of control and 106 % of control
dose: 25.0 mg/kg/injection, schedule: Q04DX003 (ip), vehicle: Klucel (hydroxypropylcellulose) (HPC)
  T/C: 102 % of control
dose: 50.0 mg/kg/injection, schedule: Q01DX015 (ip), vehicle: carboxymethylcellulose (CMC)
  T/C: 104 % of control
dose: 50.0 mg/kg/injection, schedule: Q04DX003 (ip), vehicle: Klucel (hydroxypropylcellulose) (HPC)
  T/C: 105 % of control
[3]
  T/C: 112 % of control
dose: 100.0 mg/kg/injection, schedule: Q01DX015 (ip), vehicle: carboxymethylcellulose (CMC)
  T/C: 118 % of control
[1]
  T/C: 102 % of control

## Oc1ccc(Nc2ncnc3nc[nH]c23)cc1O
[5]
  T/C: 101 % of control
[6]
  T/C: 89 % of control
[7]
  T/C: 100 % of control

## O=[N+]([O-])c1ccc(OCc2cc(S(=O)(=O)F)ccc2Cl)c(Cl)c1
dose: 75.0 mg/kg/injection, schedule: Q04DX003 (ip), vehicle: gum acacia
  T/C: 100 % of control
dose: 150.0 mg/kg/injection, schedule: Q04DX003 (ip), vehicle: gum acacia
  T/C: 96 % of control
dose: 300.0 mg/kg/injection, schedule: Q04DX003 (ip), vehicle: gum acacia
  T/C: 91 % of control

## Cc1cccc(NC(=O)Nc2ccc(Cl)cc2)c1C
dose: 100.0 mg/kg/injection, schedule: Q01DX009 (ip), vehicle: gum acacia
  T/C: 100 % of control
dose: 100.0 mg/kg/injection, schedule: Q04DX003 (ip), vehicle: gum acacia
  T/C: 95 % of control
dose: 200.0 mg/kg/injection, schedule: Q01DX009 (ip), vehicle: gum acacia
  T/C: 100 % of control
dose: 200.0 mg/kg/injection, schedule: Q04DX003 (ip), vehicle: gum acacia
  T/C: 95 % of control
dose: 400.0 mg/kg/injection, schedule: Q01DX009 (ip), vehicle: gum acacia
  T/C: 92 % of control
dose: 400.0 mg/kg/injection, schedule: Q04DX003 (ip), vehicle: gum acacia
  T/C: 97 % of control
